Measurements: US5126336A, “Antibiotic C-3 catechol-substituted cephalosporin compounds, compositions and method of use thereof” (Bristol-Myers Squibb Company, priority 1990, dated 1992)
Values after ≈ are worked out from the molar mass of the structure shown.

Key:
Format in all cases: cell-based
B. subtilis PCI 219 = assay: MIC, agar dilution; details: Bacillus subtilis, PCI219, Mueller-Hinton agar pH 7.2, 32° C., 18 hr, 10^6 cells/ml
Method: (§1) Minimum inhibitory concentrations (MICs) of the present series of cephalosporins were determined against 32 strains of test organisms by two-fold serial agar dilution method in Mueller-Hinton agar. Geometric means of MICs were calculated against six groups of the test organisms which are classified as follows and summarized in Table 1.
(§2) Medium; MuellerHinton agar (pH = 7.2)
(§3) Incubation temperature: 32° C., 18 hr
(§4) Inoculum size; 10^6 cells/ml

C. freundii GN 7391 = assay: MIC, agar dilution; details: Citrobacter freundii, GN7391, Mueller-Hinton agar pH 7.2, 32° C., 18 hr, 10^6 cells/ml
Method: as §1, §2, §3, §4

C. terrigena IFO 12685 = assay: MIC, agar dilution; details: Mueller-Hinton agar pH 7.2, 32° C., 18 hr, 10^6 cells/ml
Method: as §1, §2, §3, §4

E. cloacae IPM-12 = assay: MIC, agar dilution; details: Enterobacter cloacae, IPM12, Mueller-Hinton agar pH 7.2, 32° C., 18 hr, 10^6 cells/ml
Method: as §1, §2, §3, §4

E. coli 255 = assay: MIC, agar dilution; details: Escherichia coli, Mueller-Hinton agar pH 7.2, 32° C., 18 hr, 10^6 cells/ml
Method: as §1, §2, §3, §4

E. faecalis A9808 = assay: MIC, agar dilution; details: Enterococcus faecalis, Mueller-Hinton agar pH 7.2, 32° C., 18 hr, 10^6 cells/ml
Method: as §1, §2, §3, §4

E. faecium A24817 = assay: MIC, agar dilution; details: Enterococcus faecium, Mueller-Hinton agar pH 7.2, 32° C., 18 hr, 10^6 cells/ml
Method: as §1, §2, §3, §4

K. pneumoniae PCI 602 = assay: MIC, agar dilution; details: Klebsiella pneumoniae, PCI602, Mueller-Hinton agar pH 7.2, 32° C., 18 hr, 10^6 cells/ml
Method: as §1, §2, §3, §4

M. luteus 1001 = assay: MIC, agar dilution; details: Micrococcus luteus, Mueller-Hinton agar pH 7.2, 32° C., 18 hr, 10^6 cells/ml
Method: as §1, §2, §3, §4

M. morgani 1510/9 = assay: MIC, agar dilution; details: Mueller-Hinton agar pH 7.2, 32° C., 18 hr, 10^6 cells/ml
Method: as §1, §2, §3, §4

M. morgani 1510 = assay: MIC, agar dilution; details: Mueller-Hinton agar pH 7.2, 32° C., 18 hr, 10^6 cells/ml
Method: as §1, §2, §3, §4

P. aeruginosa A20599 = assay: MIC, agar dilution; details: Pseudomonas aeruginosa, Mueller-Hinton agar pH 7.2, 32° C., 18 hr, 10^6 cells/ml
Method: as §1, §2, §3, §4

P. aeruginosa IPM-8 = assay: MIC, agar dilution; details: Pseudomonas aeruginosa, IPM8, Mueller-Hinton agar pH 7.2, 32° C., 18 hr, 10^6 cells/ml
Method: as §1, §2, §3, §4

P. aeruginosa IPM-9 = assay: MIC, agar dilution; details: Pseudomonas aeruginosa, IPM9, Mueller-Hinton agar pH 7.2, 32° C., 18 hr, 10^6 cells/ml
Method: as §1, §2, §3, §4

P. aeruginosa KKA 19 = assay: MIC, agar dilution; details: Pseudomonas aeruginosa, KKA19, Mueller-Hinton agar pH 7.2, 32° C., 18 hr, 10^6 cells/ml
Method: as §1, §2, §3, §4

P. cepacia A21213 = assay: MIC, agar dilution; details: Burkholderia cepacia, Mueller-Hinton agar pH 7.2, 32° C., 18 hr, 10^6 cells/ml
Method: as §1, §2, §3, §4

P. cepacia No. 651 = assay: MIC, agar dilution; details: Burkholderia cepacia, Mueller-Hinton agar pH 7.2, 32° C., 18 hr, 10^6 cells/ml
Method: as §1, §2, §3, §4

P. mirabilis IFO-2849 = assay: MIC, agar dilution; details: Proteus mirabilis, IFO2849, Mueller-Hinton agar pH 7.2, 32° C., 18 hr, 10^6 cells/ml
Method: as §1, §2, §3, §4

P. rettgeri IPM-14 = assay: MIC, agar dilution; details: Providencia rettgeri, IPM14, Mueller-Hinton agar pH 7.2, 32° C., 18 hr, 10^6 cells/ml
Method: as §1, §2, §3, §4

P. vulgaris IPM-13 = assay: MIC, agar dilution; details: Proteus vulgaris, IPM13, Mueller-Hinton agar pH 7.2, 32° C., 18 hr, 10^6 cells/ml
Method: as §1, §2, §3, §4

S. aureus 209P = assay: MIC, agar dilution; details: Staphylococcus aureus; S. aureus 209P; Mueller-Hinton agar pH 7.2; 32° C., 18 hr; 10^6 cells/ml; read-out: MIC
Method: as §1, §2, §3, §4

S. aureus 4-1015 (MRSA) = assay: MIC, agar dilution; details: Staphylococcus aureus, Mueller-Hinton agar pH 7.2, 32° C., 18 hr, 10^6 cells/ml
Method: as §1, §2, §3, §4

S. aureus IPM-24 (MRSA) = assay: MIC, agar dilution; details: Staphylococcus aureus, Mueller-Hinton agar pH 7.2, 32° C., 18 hr, 10^6 cells/ml
Method: as §1, §2, §3, §4

S. epidermidis 11-1230 = assay: MIC, agar dilution; details: Staphylococcus epidermidis, 111230, Mueller-Hinton agar pH 7.2, 32° C., 18 hr, 10^6 cells/ml
Method: as §1, §2, §3, §4

S. marcescens IPM-15 = assay: MIC, agar dilution; details: Serratia marcescens, IPM15, Mueller-Hinton agar pH 7.2, 32° C., 18 hr, 10^6 cells/ml
Method: as §1, §2, §3, §4

S. marcescens IPM-16 = assay: MIC, agar dilution; details: Serratia marcescens, IPM16, Mueller-Hinton agar pH 7.2, 32° C., 18 hr, 10^6 cells/ml
Method: as §1, §2, §3, §4

X. maltophilia GN 12873 = assay: MIC, agar dilution; details: Stenotrophomonas maltophilia, GN12873, Mueller-Hinton agar pH 7.2, 32° C., 18 hr, 10^6 cells/ml
Method: as §1, §2, §3, §4

X. maltophilia No. 661 = assay: MIC, agar dilution; details: Stenotrophomonas maltophilia, Mueller-Hinton agar pH 7.2, 32° C., 18 hr, 10^6 cells/ml
Method: as §1, §2, §3, §4

E. coli Juhl A15119 = assay: MIC, agar dilution; details: Escherichia coli, JUHLA15119; E. coli Juhl A15119; Mueller-Hinton agar pH 7.2; 32° C., 18 hr; 10^6 cells/ml; read-out: MIC
Method: as §1
(§5) In vivo antibacterial activity was determined against three bacterial infections (S. aureus Smith, E. coli Juhl and P. aeruginosa A9843A) by intramuscular administration to mice just after the bacterial challenge. PD50 values are summarized in Table 3 in comparsion with the MIC values against the corresponding organisms.
as §2, §3, §4

P. aeruginosa A9843A = assay: MIC, agar dilution; details: Pseudomonas aeruginosa, A9843A, 18 h, pH 7.2
Method: as §1, §5, §2, §3, §4

S. aureus Smith = assay: MIC, agar dilution; details: Staphylococcus aureus; S. aureus Smith; Mueller-Hinton agar pH 7.2; 32° C., 18 hr; 10^6 cells/ml; read-out: MIC
Method: as §1, §5, §2, §3, §4

[1] = tested on: Gp-Ia: Penicillin(PC)-sensitive S. aureus (5 strains); assay: MIC, two-fold serial agar dilution, Gp-Ia; details: Staphylococcus aureus, Mueller-Hinton agar, read-out: Geometric mean of MIC
Method: as §1
Gp-Ia Penicillin(PC)-sensitive S. aureus (5 strains).

[2] = tested on: Gp-Ib: Penicillin(PC)-resistant S. aureus (5); assay: MIC, two-fold serial agar dilution, Gp-Ib; details: Staphylococcus aureus, 5 strains, Mueller-Hinton agar, read-out: Geometric mean of MIC
Method: as §1
Gp-Ib Penicillin(PC)-resistant S. aureus (5).

[3] = tested on: Gn-Ia: Cephalothin(CET)-sensitive E. coli (2), Kl. pneumoniae (1) and Pr. mirabilis (2); assay: MIC, two-fold serial agar dilution, Gn-Ia; details: 5 strains, Mueller-Hinton agar, read-out: Geometric mean of MIC
Method: as §1
Gn-Ia Cephalothin(CET)-sensitive E. coli (2), Kl.
pneumoniae (1) and Pr. mirabilis (2).

[4] = tested on: Gn-Ib: Cephalothin(CET)-resistant E. coli (3) and Kl. pneumoniae (2); assay: MIC, two-fold serial agar dilution, Gn-Ib; details: Escherichia coli, read-out: Geometric mean of MIC, Gn-Ib, 5 strains; Mueller-Hinton agar
Method: as §1
Gn-Ib Cephalothin(CET)-resistant E. coli (3) and Kl.

[5] = tested on: Gn-II: M.morganii (1), Ent. cloacae (2) and Ser. marcescens (2); assay: MIC, two-fold serial agar dilution, Gn-II; details: Gn-II, 5 strains; Mueller-Hinton agar; read-out: Geometric mean of MIC
Method: as §1
Gn-II M.morganii (1), Ent. cloacae (2) and Ser.

[6] = tested on: Gn-III: Ps. aeruginosa (7); assay: MIC, two-fold serial agar dilution, Gn-III; details: Pseudomonas aeruginosa, Gn-III, 7 strains; Mueller-Hinton agar; read-out: Geometric mean of MIC
Method: as §1
Gn-III Ps. aeruginosa (7).

Structure (SMILES): CC(C)(O/N=C(\C(=O)NC1C(=O)N2C(C(=O)O)=C(/C=C/Cn3cnc4cc(O)c(O)cc43)CS[C@H]12)c1csc(N)n1)C(=O)O (stereo partly shown) [Io, 7-[(Z)-2-(2-Aminothiazol-4-yl)-2-(1-methyl-1-carboxyethoxy-imino)acetamido]-3-[(E)-3-(5,6-dihydroxybenzimidazol-1-yl)-1-propen-1-yl]-3-cephem-4-carboxylic acid]
- MIC (B. subtilis PCI 219): 12.5 µg/mL (≈ 19.4 µM)
- MIC (C. freundii GN 7391): 25 µg/mL (≈ 38.8 µM)
- MIC (C. terrigena IFO 12685): 3.1 µg/mL (≈ 4.82 µM)
- MIC (E. cloacae IPM-12): 12.5 µg/mL (≈ 19.4 µM)
- MIC (E. coli 255): 0.2 µg/mL (≈ 0.311 µM)
- MIC (E. faecalis A9808): > 100 µg/mL
- MIC (E. faecium A24817): > 100 µg/mL
- MIC (K. pneumoniae PCI 602): 0.05 µg/mL (≈ 0.0777 µM)
- MIC (M. luteus 1001): 6.3 µg/mL (≈ 9.79 µM)
- MIC (M. morgani 1510/9): 0.8 µg/mL (≈ 1.24 µM)
- MIC (M. morgani 1510): 3.1 µg/mL (≈ 4.82 µM)
- MIC (P. aeruginosa A20599): 0.8 µg/mL (≈ 1.24 µM)
- MIC (P. aeruginosa IPM-8): 0.4 µg/mL (≈ 0.621 µM)
- MIC (P. aeruginosa IPM-9): 25 µg/mL (≈ 38.8 µM)
- MIC (P. aeruginosa KKA 19): 0.8 µg/mL (≈ 1.24 µM)
- MIC (P. cepacia A21213): 6.3 µg/mL (≈ 9.79 µM)
- MIC (P. cepacia No. 651): 6.3 µg/mL (≈ 9.79 µM)
- MIC (P. mirabilis IFO-2849): 0.2 µg/mL (≈ 0.311 µM)
- MIC (P. rettgeri IPM-14): 1.6 µg/mL (≈ 2.49 µM)
- MIC (P. vulgaris IPM-13): 50 µg/mL (≈ 77.7 µM)
- MIC (S. aureus 209P): 12.5 µg/mL (≈ 19.4 µM)
- MIC (S. aureus 4-1015 (MRSA)): > 100 µg/mL
- MIC (S. aureus IPM-24 (MRSA)): 100 µg/mL (≈ 155 µM)
- MIC (S. epidermidis 11-1230): 50 µg/mL (≈ 77.7 µM)
- MIC (S. marcescens IPM-15): > 100 µg/mL
- MIC (S. marcescens IPM-16): 25 µg/mL (≈ 38.8 µM)
- MIC (X. maltophilia GN 12873): 3.1 µg/mL (≈ 4.82 µM)
- MIC (X. maltophilia No. 661): 1.6 µg/mL (≈ 2.49 µM)
- MIC (E. coli Juhl A15119): 1.6 µg/mL (≈ 2.49 µM)
- MIC (P. aeruginosa A9843A): 0.4 µg/mL (≈ 0.621 µM)
- MIC (S. aureus Smith): 25 µg/mL (≈ 38.8 µM)

Structure (SMILES): CC(C)(O/N=C(\C(=O)NC1C(=O)N2C(C(=O)[O-])=C(/C=C/C[N+](C)(C)CCc3ccc(O)c(O)c3)CS[C@H]12)c1csc(N)n1)C(=O)O (stereo partly shown) [Iq, 7-[(Z)-2-(2-Aminothiazol-4-yl)-2-(1-carboxy-1-methylethoxy-imino)acetamido]-3-[(E)-3-(3,4-dihydroxyphenethyldimethyl-ammonio)-1-propen-1-yl]-3-cephem-4-carboxylate]
- MIC [1]: 13 µg/mL (≈ 19.3 µM)
- MIC [2]: 25 µg/mL (≈ 37.1 µM)
- MIC [3]: 0.17 µg/mL (≈ 0.252 µM)
- MIC [4]: 0.13 µg/mL (≈ 0.193 µM)
- MIC [5]: 0.8 µg/mL (≈ 1.19 µM)
- MIC [6]: 0.59 µg/mL (≈ 0.874 µM)
